Laboratory results as given in US20200121579A1, “TOPICAL COMPOSITIONS” (DSM IP ASSETS B.V., priority 2017, published 2020).

Tests used:
Propionibacterium acnes = experiment: Antimicrobial efficacy in analogy to challenge test NF EN ISO11930, P. acnes; format: cell-based; settings: 0.1 wt.-% single active; for Propionibacterium acnes colony count: 24 h after contamination, 22° C., initial count 310000 cfu/ml
Description: The wells are contaminated with either Propionibacterium acnes or Escherichia coli at 2.5*10^5 to 5.6*10^5 cfu/ml to obtain the initial contamination as outlined in table 1. […] (The term “Log reduction” is a well-known mathematical term used to show the relative number of cells, germs, microbes, etc., reduced in or on something, e.g. a 2 log reduction means the number of microbes is 100 times smaller and a 3 log reduction means the number of microbes is 1000 times smaller).

Escherichia coli = experiment: Antimicrobial efficacy in analogy to challenge test NF EN ISO11930, E. coli; format: cell-based; settings: 0.1 wt.-% single active; for Escherichia coli colony count: 24 h after contamination, 22° C., initial count 250000 cfu/ml
Description: The wells are contaminated with either Propionibacterium acnes or Escherichia coli at 2.5*10^5 to 5.6*10^5 cfu/ml to obtain the initial contamination as outlined in table 1.

| Compound | Propionibacterium acnes colony count (Propionibacterium acnes) | Δ (change of microorganism count t = 24 h vs t = 0) (Escherichia coli) | Escherichia coli colony count (Escherichia coli) | Log reduction (Propionibacterium acnes; 24 h vs 0 h) |
| --- | --- | --- | --- | --- |
| O=C(CO)[C@H](O)CO (racemic) [erythrulose] | 3000 cfu/ml | +112% | 530000 cfu/ml |  |
| CC(=O)OC/C=C(C)/C=C/C=C(C)/C=C/C1=C(C)CCCC1(C)C [retinyl acetate] | 3000 cfu/ml | +112% | 530000 cfu/ml | 2 |
